Results as given in US11225474B2, “Crystalline salt forms of 3-(1,2,4-triazolo[4,3-a]pyridine-3-ylethynyl)-4-methyl-N-(4-((4-methylpiperazin-1-yl)methyl)-3-trifluoromethylphenyl)benzamide for medical application” (priority 2016, dated 2022).
In brackets after ≈: the same amount, converted by molar mass. Read-outs that look alike come from different tables or passages of the source.

Assays:
[1] = Dissolution kinetics (USP Apparatus 1 Basket Method); format: physicochemical; conditions: for pH of prepared solution: 780 minutes after beginning
Protocol: During further studies of the polymorphous modifications of the methanesulfonic acid salt of 3-(1,2,4-triazolo[4,3-a]pyridine-3-ylethynyl)-4-methyl-N-(4-((4-methylpiperazine-1-yl)methyl)-3-trifluoromethylphenyl)benzamide, the kinetics of dissolution of the free base and the two methanesulfonic acid salt form polymorphous modifications was studied. Dissolution kinetics studies were performed using USP Apparatus 1 Basket Method (USP40, General Chapter <711>. Dissolution), dissolution media volume—700 mL, temperature—37±1° C. paddle stirrers' rotation rate—100 rpm. The test sample dissolution rate was calculated as an average of six repeats. Distilled water was used as the dissolution medium for the polymorphous modifications of 3-(1,2,4-triazolo[4,3-a]pyridine-3-ylethynyl)-4-methyl-N-(4-((4-methylpiperazine-1-yl)methyl)-3-trifluoromethylphenyl)benzamide methanesulfonic acid salt and, and a solution of 12.2 mL of methanesulfonic acid in 500 mL of water was used as the dissolution medium for the free base. Test portions containing 100 mg of 3-(1,2,4-triazolo[4,3-a]pyridine-3-ylethynyl)-4-methyl-N-(4-((4-methylpiperazine-1-yl)methyl)-3-trifluoromethylphenyl)benzamide or 118 mg of 3-(1,2,4-triazolo[4,3-a]pyridine-3-ylethynyl)-4-methyl-N-(4-((4-methylpiperazine-1-yl)methyl)-3-trifluoromethylphenyl)benzamide methanesulfonic acid salt (100 mg calculated as free base) were used for dissolution. In 780 minutes (13 hours) after the beginning of the test, pH of prepared solutions was measured.

in vivo = experiment: in vivo; design: species or system C57BL/6 line mice
Protocol: FIGS. 52A-52B. […] The mean values were determined for each time point on the basis of the individual data obtained from three animals.
The results of the study are given in FIG. 52 and in Tables 14 and 15.

pKa of the base = format: physicochemical
[2] = Solubility of the free base in various solvents; format: physicochemical; conditions: thermodynamic from solid
Protocol: At the first stage the initial base was tested for solubility in selected organic solvents. The maximum selected solvent volume used in this test was 1.25 mL per 1 mg of base. Low toxicity (Class 3), low-boiling (Tboiling<100° C.), polar, solvents. in which the base was soluble at no less than 10 mg/mL were selected for further studies.

[3] = Stability of polymorph modifications, suspending in acetone for 6 days; format: physicochemical; conditions: for crystalline structure after suspending in acetone: 6 days; for Crystallinity in 6 days: suspending in acetone for 6 days, room temperature
Protocol: Crystallinity of all samples obtained was studied using the method of X-ray powder diffraction (to study the crystallinity structure). Diffraction patterns were obtained at a temperature of 25° C. […] Survey step 0.02° 2θ, angle range 3-45° 2θ. Diffraction patterns obtained were studied in detail using X'Pert HighScore Plus software package.

[4] = Acute toxicity, oral route, mice; conditions: male, CD-1, mouse, in vivo, po, LD50, oral, male CD-1 mice; dose of the substance administered
Source text: (§1) For each drug dose study a group of six animals was used. The study included control groups with the same animal headcount, which received equivalent solvent doses of a 0.5% water solution of methylcellulose. The follow-up period was 28 days. Lab mouse survivability analysis allowed carrying out Bliss analysis and determining the lethal doses of the studied drugs.

CD-1 line mice males = experiment: Acute toxicity, oral route, mice
Source text: as §1

physchem [5] = conditions: deionized water, thermodynamic from solid, Equilibrium solubility, HPLC analysis
[6] = Stability, 7 days at T = 60° C.; format: physicochemical; conditions: for Crystallinity in 7 days / Relative peak area, in 7 days: 7 days at T = 60° C.; for Relative peak area, initial: before storage; for content of impurities: kept seven days at 60° C.
[7] = for pH: equilibrium solubility test in water; for Crystallinity in 24 h: solid in water, equilibrium solubility test
physchem [8] = format: physicochemical; conditions: deionized water
[9] = Hygroscopicity by gravimetric moisture absorption; format: physicochemical; conditions: for water absorbed (hygroscopicity): relative air humidity of 90%
Source text: Samples were also studied using the following methods: polarization microscopy (Leica DMRB Polarized Microscope, resolution of 1600×1200)—to confirm crystallinity, ion chromatography—to confirm anion and cation stoichiometric proportion, differential scanning calorimetry (DSC) and thermogravimetric analysis (TGA)—to confirm composition and study of temperature stability of samples; ^1H NMR (500 MHz Bruker AVANCE 500.13 MHz, solvent DMSO-d6)—to confirm structure, assess purity and content of organic solvents; gravimetric moisture absorption—to assess hygroscopicity. DSC was carried out using Mettler 822e DSC apparatus. The measuring system was calibrated according to ISO 11357-1 standard based on standard substances phase changes (C6H12; Hg; benzoic acid; Ga; KNO3; In; Sn; Bi; CsCl; purity grade 99.99%). Temperature calibration regular error (determined based on In) is 0.1°. Samples were tested in standard aluminum cells in the artificial air flow at a temperature range of 30-300° C. with heating speed of 10°/min. TG measurements were taken using Mettler 851e SDTA/TGA TG analyzer. The apparatus was calibrated using standard substances melting points (Ag; Al; Bi; In; Sn; purity grade of 99.99%). Weighing error is NMT 0.1% (determined using CaC2O4·2H2O standard). The test was carried out in a standard open aluminum container in the artificial air flow at a temperature range of 30-150° C. with heating speed of 10°/min. To avoid dehydration, the material was not exposed to mechanical treatment before taking measurements.

[10] = system: Sca1+ marrow cells, expressing p185-T315I^BCR/ABL; experiment: BCR/ABL-induced chronic myelogenous leukemia model; format: in vivo, C57BL/6N line mice; conditions: oral, 50 mg/kg free base; control 55.0 ± 6.3
Protocol: To assess the efficacy of the free base and methanesulfonic acid salt of 3-(1,2,4-triazolo[4,3-a]pyridine-3-ylethynyl)-4-methyl-N-(4-((4-methylpiperazine-1-yl)methyl)-3-trifluoromethylphenyl)benzamide for treating chronic myelogenous leukemia (CML) studies of the compounds' activity on the BCR/ABL-induced CML-like disease in mice were conducted. In the study C57BL/6N line mice were used. […] The efficacy of therapy with 3-(1,2,4-triazolo[4,3-a]pyridine-3-ylethynyl)-4-methyl-N-(4-((4-methylpiperazine-1-yl)methyl)-3-trifluoromethylphenyl)benzamide administered orally as a free base and methanesulfonic acid salt was studied.

[11] = mesylate polymorphous modification I 59 mg/kg (50 mg/kg as free base), single oral, C57BL/6 mice
[12] = oral, male CD-1 mice, dose of the substance administered
[13] = mouse, free base 50 mg/kg, single oral, C57BL/6 mice, plasma

Question: What does the source list for `CS(=O)(=O)O.Cc1ccc(C(=O)Nc2ccc(CN3CCN(C)CC3)c(C(F)(F)F)c2)cc1C#Cc1nnc2ccccn12` [methanesulfonic acid salt (polymorphous modification I)] [3-(1,2,4-triazolo[4,3-a]pyridine-3-ylethynyl)-4-methyl-N-(4-((4-methylpiperazin-1-yl)methyl)-3-trifluoromethylphenyl)benzamide mono methanesulfonic acid salt, polymorphous modification I]?
Answer: pH of prepared solution ([1]; medium distilled water): 5.04; AUC0-24 (in vivo; [11]): 11,933 ngh/mL; AUC0-24/24 (in vivo; [11]): 497 ng/mL; AUC0-∞ (in vivo; [11]): 12,103 ng · h/mL; Cmax (in vivo; [11]): 1,099 ng/mL; T1/2 (in vivo; [11]): 3.8 h; Tmax (in vivo; [11]): 4 h

Question: Which “pH of prepared solution” value ([1]; medium distilled water) does the source give for `CS(=O)(=O)O.Cc1ccc(C(=O)Nc2ccc(CN3CCN(C)CC3)c(C(F)(F)F)c2)cc1C#Cc1nnc2ccccn12` [methanesulfonic acid salt (polymorphous modification II)] [3-(1,2,4-triazolo[4,3-a]pyridine-3-ylethynyl)-4-methyl-N-(4-((4-methylpiperazin-1-yl)methyl)-3-trifluoromethylphenyl)benzamide mono methanesulfonic acid salt, polymorphous modification II] here?
Answer: Its value is 4.95.

Question: And the “differences in all pharmacokinetic parameters studied versus polymorphous modification I” value (in vivo; mouse, in vivo)?
Answer: Its value is “No statistically true differences in all pharmacokinetic parameters studied were revealed after administration of the salt form as polymorphous modification II (p < 0.05)”.

Question: Which results are given for `Cc1ccc(C(=O)Nc2ccc(CN3CCN(C)CC3)c(C(F)(F)F)c2)cc1C#Cc1nnc2ccccn12` [free base, 3-(1,2,4-triazolo[4,3-a]pyridine-3-ylethynyl)-4-methyl-N-(4-((4-methylpiperazin-1-yl)methyl)-3-trifluoromethylphenyl)benzamide]?
Answer: pH of prepared solution ([1]; medium 12.2 mL methanesulfonic acid in 500 mL water): 4.02; share dissolved ([1]; solution containing 12.2 mL methanesulfonic acid, 780 minutes (13 hours)): less than 90%; pKa (pKa of the base): ~6.4; solubility ([2]; organic solvent or mixture, 2-methyltetrahydrofuran, 3.7 mg in 0.6 mL, 50 °C): > 800 µg/mL; solubility ([2]; organic solvent or mixture, Acetone, 3.4 mg in 0.3 mL, 50 °C): > 800 µg/mL; solubility ([2]; organic solvent or mixture, Acetonitrile, 3.5 mg in 4.0 mL, 50 °C): < 800 µg/mL; solubility ([2]; organic solvent or mixture, Cyclohexane, 4.3 mg in 4.0 mL, 50 °C): < 800 µg/mL; solubility ([2]; organic solvent or mixture, Dichloromethane, 3.7 mg in 0.4 mL, 50 °C): > 800 µg/mL; solubility ([2]; organic solvent or mixture, Dimethyl sulfoxide, 3.8 mg in 0.1 mL, RT): > 800 µg/mL; solubility ([2]; organic solvent or mixture, Dimethylformamide, 4.7 mg in 0.1 mL, RT): > 800 µg/mL; solubility ([2]; organic solvent or mixture, Ethanol, 4.7 mg in 0.3 mL, 50 °C): > 800 µg/mL; solubility ([2]; organic solvent or mixture, Ethyl acetate, 3.9 mg in 1.3 mL, 50 °C): > 800 µg/mL; solubility ([2]; organic solvent or mixture, Heptane, 3.3 mg in 4.0 mL, 50 °C): < 800 µg/mL; solubility ([2]; organic solvent or mixture, Isopropanol, 3.6 mg in 0.4 mL, 50 °C): > 800 µg/mL; solubility ([2]; organic solvent or mixture, Isopropyl acetate, 4.0 mg in 4.0 mL, 50 °C): < 800 µg/mL; solubility ([2]; organic solvent or mixture, Methanol, 4.0 mg in 0.1 mL, 50 °C): > 800 µg/mL; solubility ([2]; organic solvent or mixture, Methyl ethyl ketone, 4.8 mg in 0.4 mL, 50 °C): > 800 µg/mL; solubility ([2]; organic solvent or mixture, Methyl isobutyl ketone, 4.1 mg in 0.6 mL, 50 °C): > 800 µg/mL; solubility ([2]; organic solvent or mixture, Methyl tert-butyl ether, 4.7 mg in 4.0 mL, 50 °C): < 800 µg/mL; solubility ([2]; organic solvent or mixture, N-methylpyrrolidone, 3.7 mg in 0.1 mL, RT): > 800 µg/mL; solubility ([2]; organic solvent or mixture, Tetrahydrofuran, 3.6 mg in 0.1 mL, 50 °C): > 800 µg/mL; solubility ([2]; organic solvent or mixture, Toluene, 3.4 mg in 4.0 mL, 50 °C): < 800 µg/mL; solubility ([2]; organic solvent or mixture, n-Butanol, 3.6 mg in 0.2 mL, 50 °C): > 800 µg/mL; solubility ([2]; Water, 4.6 mg in 4.0 mL, 50 °C): < 800 µg/mL; crystalline structure after suspending in acetone [3]: changes; Crystallinity in 6 days [3]: Form II; LD50 at 28 days [4]: 677 ± 55 mg/kg; Dose without observable effects (CD-1 line mice males; male, CD-1, mouse, in vivo, po, 28 days): 160 mg/kg; signs of animal intoxication (CD-1 line mice males; mouse, in vivo, po): dyspnea, hypodynamia, tumbled fur, diarrhea, bloating, in some animals—focal alopecia; LD10 (CD-1 line mice males; [12]): 504 mg/kg; LD90 (CD-1 line mice males; [12]): 850 mg/kg; solubility thermodynamic (physchem [5]): 0.23 µg/mL (≈ 0.432 µM); Crystallinity in 7 days [6]: Form I; Relative peak area, in 7 days [6]: 99.7%; Relative peak area, initial [6]: 99.7%; content of impurities [6]: remains constant; pH [7]: 5.3; Crystallinity in 24 h [7]: Cryst.; solubility (physchem [8]; water, read-out: Apparent solubility): < 1000 µg/mL; AUC0-24/24 (in vivo; free base 50 mg/kg, single oral, C57BL/6 mice, plasma): 452 ng/mL; AUC(0-inf) (in vivo; [13]): 10900 ng·h/mL; half-life (in vivo; [13]): 2.4 h; AUC(0-t) (in vivo; mouse, free base 50 mg/kg, single oral, C57BL/6 mice, plasma, read-out: AUC0-24): 10900 ng·h/mL; Cmax (in vivo; mouse, free base 50 mg/kg, single oral, C57BL/6 mice, plasma, read-out: Cmax): 1490 ng/mL; Tmax (in vivo; mouse, free base 50 mg/kg, single oral, C57BL/6 mice, plasma, read-out: Tmax): 2 h; water absorbed (hygroscopicity) [9]: less than three mass percent of water; Average life [10]: 93.0 ± 6.1 days

Question: For `Cc1ccc(C(=O)Nc2ccc(CN3CCN(C)CC3)c(C(F)(F)F)c2)cc1C#Cc1nnc2ccccn12.Cc1ccc(S(=O)(=O)O)cc1` [HAL-G-196-24], which “crystalline structure after suspending in acetone” value [3] is on record?
Answer: Its value is “remained unchanged”.

Question: And the “Crystallinity in 7 days” value [6]?
Answer: Its value is “Cryst”.

Question: What about the “Relative peak area, in 7 days” value [6] of the same molecule?
Answer: The value was 99.9%.

Question: What about the “Relative peak area, initial” value [6] of the same molecule?
Answer: The value was 99.8%.

Question: What about the content of impurities [6] of the same molecule?
Answer: The content of impurities was “remained constant”.

Question: And the pH [7]?
Answer: The pH was 3.5.

Question: What about the “Crystallinity in 24 h” value [7] of the same molecule?
Answer: Its value is “Cryst”.

Question: And the “water absorbed (hygroscopicity)” value [9]?
Answer: Its value is “less than four mass percent of water”.

Question: Which results are given for `Cc1ccc(C(=O)Nc2ccc(CN3CCN(C)CC3)c(C(F)(F)F)c2)cc1C#Cc1nnc2ccccn12.Cl` [HAL-G-196-2]?
Answer: Apparent solubility (physchem [8]; RT): >29000 µg/mL; sample hygroscopicity (water sorption and desorption) ([9]; gravimetric moisture absorption): desorbed and sorbed water, the volume of which corresponded to a dihydrate

Question: For `Br.Cc1ccc(C(=O)Nc2ccc(CN3CCN(C)CC3)c(C(F)(F)F)c2)cc1C#Cc1nnc2ccccn12` [HAL-G-196-7], which “water absorbed (hygroscopicity)” value [9] is on record?
Answer: Its value is “more than ten mass percent of water and thawed in the air”.

Question: Which results are given for `Cc1ccc(C(=O)Nc2ccc(CN3CCN(C)CC3)c(C(F)(F)F)c2)cc1C#Cc1nnc2ccccn12.Cl` [HAL-G-196-3]?
Answer: crystalline structure after suspending in acetone [3]: remained unchanged; Crystallinity in 6 days [3]: Form II; Crystallinity in 7 days [6]: Form II; Relative peak area, in 7 days [6]: 99.9%; Relative peak area, initial [6]: 99.9%; content of impurities [6]: remained constant; pH [7]: 4.0; Crystallinity in 24 h [7]: Amorphous; water absorbed (hygroscopicity) [9]: less than 8 mass percent

Question: For `Cc1ccc(C(=O)Nc2ccc(CN3CCN(C)CC3)c(C(F)(F)F)c2)cc1C#Cc1nnc2ccccn12.O=C(O)/C=C/C(=O)O` [HAL-G-196-29], which “crystalline structure after suspending in acetone” value [3] is on record?
Answer: The value was “remained unchanged”.

Question: What about the “Crystallinity in 6 days” value [3] of the same molecule?
Answer: Its value is “Cryst”.

Question: And the “Crystallinity in 7 days” value [6]?
Answer: The value was “Cryst”.

Question: What about the “Relative peak area, in 7 days” value [6] of the same molecule?
Answer: The value was 99.9%.

Question: And the “Relative peak area, initial” value [6]?
Answer: Its value is 99.8%.

Question: And the content of impurities [6]?
Answer: The content of impurities was “remained constant”.

Question: And the pH [7]?
Answer: The pH was 4.2.

Question: And the “Crystallinity in 24 h” value [7]?
Answer: The value was “Cryst”.

Question: What about the “water absorbed (hygroscopicity)” value [9] of the same molecule?
Answer: Its value is “less than four mass percent of water”.
